{"source": "a melting point compilation (Tetko et al.; mined from patent text by program, amines drawn as free bases though some values may be those of a salt)"}
{"units": {"melting point": "°C"}}
{"smiles": "CCC(=O)c1ccn(S(=O)(=O)c2ccccc2)c1C", "melting point": "105 to 110"}
{"smiles": "Cc1cc(C)c2c(c1O)C(=O)C(c1ccccc1)C2", "note": "(centres undefined)", "melting point": "90.5 to 91"}
{"smiles": "CC(CCc1ccc(Cl)cc1)(Cn1ccnc1)Sc1cccc(Cl)c1Cl", "note": "(centres undefined)", "melting point": "126 to 128"}
{"smiles": "CCC1(C)Cc2ccc(C(C)C(=O)O)cc2C1", "note": "(centres undefined)", "melting point": "165 to 167"}
{"smiles": "Cc1ccc(NC(=O)c2cccc(N3CCOCC3)c2)cc1NC(=O)c1cccc(OC2CCNCC2)c1", "melting point": "162 to 166"}
{"smiles": "Cc1ccc(CN2CCC(OC(=O)c3ccc(C)cc3)CC2)cc1", "melting point": "66 to 77"}
{"smiles": "C#Cc1cc(C)c(Oc2ccc([N+](=O)[O-])c(Nc3ccc(C#N)cc3)n2)c(C)c1", "melting point": "186 to 188"}
{"smiles": "CCN1C(=O)C(C(=O)Nc2cccc(C(=O)Nc3ccc(Cl)cc3)c2)c2cc(C(C)=O)ccc21", "note": "(centres undefined)", "melting point": "119 to 121"}
{"smiles": "O=C(Nc1ccncn1)Nc1cccc2c1C1CCCCN1C2=O", "note": "(centres undefined)", "melting point": 218}
{"smiles": "N#Cc1ccc(CC(NC(=O)C(Cc2ccccc2)S(=O)(=O)Nc2ccc3ccccc3c2)C(=O)N2CCCC2)cc1", "note": "(centres undefined)", "melting point": 206}
{"smiles": "CCCCOCCOc1ccc(-c2ccc(N(C)Cc3cnn(C)c3)c(C=CC(=O)O)c2)cc1", "melting point": "125 to 127"}
{"smiles": "CCCCCCCCCCCCC1CC(=C(C#N)C#N)CCC1=C(C#N)C#N", "note": "(centres undefined)", "melting point": 97}
{"smiles": "COc1ccc(C(=O)c2ccc(Oc3ccc(Cl)cc3)cn2)cc1OC", "melting point": "145 to 147"}
{"smiles": "O=C(O)c1cc(Cl)cc([N+](=O)[O-])c1NCc1ccccc1Cl", "melting point": "160 to 161"}
{"smiles": "CC1(C)CC(=O)c2cc(Br)ccc21", "melting point": "117 to 118"}
{"smiles": "Cc1cc(C)cc(-c2cnn3c(-c4cccc(-c5nnn(CCN6CCCCC6)n5)c4)ccnc23)c1", "melting point": 66}
{"smiles": "COc1ccc2c(ccc3c4ccc(OC)cc4c(=O)n(-c4ccc(OCCN5CCCCC5)cc4)c23)c1", "melting point": 176}
{"smiles": "CC(C)c1ccc(N)nn1", "melting point": "131 to 132"}
{"smiles": "COCn1c(C)nc2nc(O)cnc2c1=O", "melting point": "224 to 226"}
{"smiles": "CCCOc1ccc(Br)c2c(=O)c3ccccc3sc12", "melting point": "112 to 114"}
{"smiles": "CC(=O)c1cn(S(=O)(=O)c2ccccc2)c2nccc(OC3CCCCC3)c12", "melting point": "107 to 109"}
{"smiles": "COC(=O)CCCON1C(=O)c2ccccc2C1=O", "melting point": "79 to 81"}
{"smiles": "Cc1nc2c(-c3ccc(N4CCN(C)CC4)cc3)cnn2c(N)c1-c1ccc(F)c(Cl)c1", "melting point": "264 to 265"}
{"smiles": "Cc1cc(S(=O)(=O)N2CC(C)CC(C)C2)ccc1[N+](=O)[O-]", "note": "(centres undefined)", "melting point": "133 to 138"}
{"smiles": "CC(C)(C)OC(=O)NC(Cc1ccccc1)C(O)CNCC(O)C(Cc1ccc(OCC(=O)N2CCOCC2)cc1)NC(=O)OC(C)(C)C", "note": "(centres undefined)", "melting point": "118 to 120"}
{"smiles": "N#CCN1C(=O)N(c2ccc(C#N)c(C(F)(F)F)c2)C(=O)C12CCOCC2", "melting point": "210 to 211"}
{"smiles": "COc1ccc(-c2ccc(-c3cc(NC(Cc4ccccc4)C(=O)O)ncn3)cc2)cc1", "note": "(centres undefined)", "melting point": "123 to 125"}
{"smiles": "O=C1CC(c2ccc(F)cc2)CC(=O)O1", "melting point": "99 to 104"}
{"smiles": "Cc1c(Cl)sn(-c2ccccc2)c1=O", "melting point": "60 to 68"}
{"smiles": "CCCCc1cc(=O)c(C(=O)OCC)cn1Cc1ccc(-c2ccccc2C(=O)OC(C)(C)C)cc1", "melting point": "80 to 81"}
{"smiles": "CCCc1cc(=O)oc2c(C(=O)CC)c(O)c3c(c12)OC(C)(C)C=C3", "melting point": "96 to 98"}
{"smiles": "Cc1ccc2c([nH]c(=O)n3c(=O)[nH]nc23)c1C", "melting point": "380 to 382"}
{"smiles": "CCCCCCCCCCCCCCCC(=O)C(O)C(=O)C(O)C(=O)CCCCCCCCCCCCCCC", "note": "(centres undefined)", "melting point": "80 to 81"}
{"smiles": "Nc1c(-c2ccc(-c3ccc(F)cc3F)cc2)nc2ccccc2c1C(=O)O", "melting point": "244 to 247"}
{"smiles": "Cc1cc2c(c3ccc(=O)[nH]c13)OC(C(O)CN=[N+]=[N-])C2", "note": "(centres undefined)", "melting point": "173 to 175"}
{"smiles": "COc1ccc(F)cc1-c1cccc(-n2cnc(-c3nc(C)no3)c2)c1", "melting point": "153 to 158"}
{"smiles": "CC(C)CCOc1c(-c2ccc(S(C)(=O)=O)cc2)cnn(CC(F)(F)F)c1=O", "melting point": "111 to 113"}
{"smiles": "Nc1ccc2[nH]c(C(=O)N3CC(CCl)c4c3cc(N)c3ccccc43)cc2c1", "note": "(centres undefined)", "melting point": "> 300"}
{"smiles": "CC1(C)CC(OC(=O)CCCCCCCCC(=O)OC2CC(C)(C)N(OC(=O)c3ccccc3)C(C)(C)C2)CC(C)(C)N1OC(=O)c1ccccc1", "melting point": "92 to 100"}
{"smiles": "CC(=O)Oc1c(N2CCCC2)c(=O)n(-c2ccccc2)c2ncccc12", "melting point": "197 to 200"}
{"smiles": "CC(C)(C)C(=O)Oc1ccc(C(O)c2ccc(OC(=O)C(C)(C)C)cc2)cc1", "melting point": "148 to 152"}
{"smiles": "N#Cc1nc(Cl)ccc1[N+](=O)[O-]", "melting point": "115 to 117"}
{"smiles": "O=C1NCCc2ccc(OCCCCN3CCN(c4cccc5ccccc45)CC3)nc2N1", "melting point": "188 to 190"}
{"smiles": "O=C(N[C@H]1CC[C@H](CCN2CCN(c3nccc4c3OCC4)CC2)CC1)c1ccc(C(F)(F)F)cc1", "melting point": 242}
{"smiles": "OCc1cccc(/C=C/c2ccccc2)c1", "melting point": "87 to 88"}
{"smiles": "O=C(O)C(CBr)(c1ccccc1)c1ccccc1", "melting point": "201 to 202"}
{"smiles": "CC(C)Oc1ccc(C=O)c(Oc2ccc(Cl)cc2Cl)n1", "melting point": "73 to 74"}
{"smiles": "O=Cc1ccc(-c2nn(Cc3ccccc3)c3ccccc23)o1", "melting point": 108}
{"smiles": "N#Cc1ccc(C#CCCC(=O)O)cc1", "melting point": "149 to 152"}
{"smiles": "ClCCOc1cccc2nc[nH]c12", "melting point": "153 to 154"}
{"smiles": "CCCCCCc1cc2c(s1)-n1c(C)nnc1CN=C2c1cccc(C)c1C", "melting point": "103 to 105"}
{"smiles": "Cc1cc(-c2c(F)c(F)c3c(=O)c(C(=O)O)cn4c3c2OC[C@@H]4C)cc(C)n1", "melting point": "307 to 310"}
{"smiles": "CCN(C)C(=O)C(C)n1cc(C)c(-c2ccccc2)n1", "note": "(centres undefined)", "melting point": "59 to 61"}
{"smiles": "Cc1cc(C)c2nc(C)c(C(=O)O)c(-c3ccccc3Cl)c2c1", "melting point": "278 to 279"}
{"smiles": "CCCNCCC1Cc2ccc(C3=NNC(=O)CC3)cc2C1", "note": "(centres undefined)", "melting point": "123 to 124"}
{"smiles": "CCC1(CC)C(=O)c2cc(O)c(C)c(C)c2C1=O", "melting point": "141 to 142"}
{"smiles": "CCOC(=O)Cn1c(-c2ccc(C(F)(F)F)cc2)nc2cccnc21", "melting point": "147 to 148"}
{"smiles": "COc1cc(OC)c(-c2cc3ccccc3n2C(=O)OC(C)(C)C)cc1/C=C/C(=O)c1ccc(C(=O)O)cc1", "melting point": "182 to 183"}
{"smiles": "FC(F)(F)C=NNc1c(Cl)cc(C(F)(F)F)cc1Cl", "melting point": "45 to 46"}
{"smiles": "OCC1Oc2ccccc2OC1CO", "note": "(centres undefined)", "melting point": "119 to 120"}
{"smiles": "CCCNc1ccc(NCc2ccc(NCCC)nc2)nc1", "melting point": "129 to 130"}
{"smiles": "COc1ccc(C(=O)C2=C(O)C(=O)N(C3OCCO3)C2c2ccccc2)cc1", "note": "(centres undefined)", "melting point": "216 to 219"}
{"smiles": "Cc1cc2c(cc1O)C(C)(C)CC2", "melting point": "70 to 71"}
{"smiles": "CC(OCc1cc2nc(Cl)ccc2n1S(=O)(=O)c1ccc2nc(N)sc2c1)C(=O)O", "note": "(centres undefined)", "melting point": "218 to 220"}
{"smiles": "O=C(c1ccccc1)c1cnc2cnccc2c1O", "melting point": 228}
{"smiles": "Cc1ccc(-c2c(CNC(=O)OC(C)(C)C)n(CC(C)C)c(=O)c3ccc(/C=C/C(N)=O)cc23)cc1", "melting point": "152 to 154"}
{"smiles": "CC(C(=O)NCC(COC(=O)C(C)(C)C)Cc1ccc(C(C)(C)C)cc1)c1ccc(NS(C)(=O)=O)c(Cl)c1", "note": "(centres undefined)", "melting point": "61 to 63"}
{"smiles": "O=C(O)c1ccccc1N1C(=O)c2ccc([N+](=O)[O-])cc2C1=O", "melting point": "242 to 243"}
{"smiles": "COCC#Cc1ncn2c1CN(C)C(=O)c1cc(F)ccc1-2", "melting point": "146 to 147"}
{"smiles": "CCOC(=O)CC(=O)CSc1nc2cc(Cl)c(F)cc2c(O)c1C(=O)OCC", "melting point": "167 to 170"}
{"smiles": "COc1cccc(-c2nc(Nc3ccc(Cl)cc3)c3ccccc3n2)n1", "melting point": "157 to 160"}
{"smiles": "CC(=O)NCc1ccc(CN2CCN(c3ccc(F)cc3NC(C)=O)CC2)cc1", "melting point": "148 to 150"}
{"smiles": "NS(=O)(=O)c1ccc(-c2ccccc2-c2ccc(F)c(Cl)c2)cc1", "melting point": "192 to 193"}
{"smiles": "CC(C)c1nccn1Cc1ccc2c(c1)Cc1c(-c3ccsc3)n[nH]c1-2", "melting point": "260 to 262"}
{"smiles": "c1ccc2c(OC[C@H]3CCCN3c3ccnc4ncnn34)cccc2c1", "melting point": "74 to 75"}
{"smiles": "CC(NC(=O)Cc1cc(F)cc(F)c1)C(=O)C1(N)N=C(c2ccccc2F)c2ccccc2N(C)C1=O", "note": "(centres undefined)", "melting point": "185 to 188"}
{"smiles": "OCc1coc(Cc2ccc(F)cc2)c1", "melting point": "45 to 47"}
{"smiles": "CCNC(=O)c1ccc2cc(-c3csc(N(C)S(=O)(=O)c4ccccc4)n3)c(=O)[nH]c2c1", "melting point": "> 300"}
{"smiles": "CC(=O)Nc1ccc(S(=O)(=O)C/C=C2/CN3C(=O)C[C@H]3O2)cc1", "melting point": "110 to 111"}
{"smiles": "CCOC(=O)c1cn(C2COC2)c2c(F)c(F)c(F)cc2c1=O", "melting point": "146 to 147"}
{"smiles": "COc1ccc2oc(Cc3ccccc3OC)c(CC#N)c2c1", "melting point": 122}
{"smiles": "COc1ccc([N+](=O)[O-])c2c1CC(C)(C)O2", "melting point": "135 to 136"}
{"smiles": "CN1CC=C(CC(=O)N2c3ccccc3NC(=O)c3ccccc32)CC1", "melting point": "200 to 201"}
{"smiles": "CCCCc1nn(-c2cc([N+](=O)[O-])ccc2Cl)c(C(=O)O)c1Cc1ccc(Br)cc1F", "melting point": "> 55"}
{"smiles": "S=C(NCN1CCOCC1)C(CN1CCOCC1)c1ccccn1", "note": "(centres undefined)", "melting point": "109 to 111"}
{"smiles": "CN1CC(CNNC(=S)Nc2ccccc2)CC2c3cccc4[nH]cc(c34)CC21", "note": "(centres undefined)", "melting point": "205 to 206"}
{"smiles": "C#CC(C)(O)C1CCC2C3CCC4CC(F)CCC4(C)C3CCC21C", "note": "(centres undefined)", "melting point": "230 to 231"}
{"smiles": "Oc1ccccc1-c1ncc2ncc(Cl)cc2n1", "melting point": "211 to 212"}
{"smiles": "COc1ccc2c3c(c(=O)oc2c1)CN(Cc1cccnc1)CC3", "melting point": "107 to 110"}
{"smiles": "Cc1cc(C2=NN=C(C#N)Cc3cc4c(cc32)OCO4)ccc1[N+](=O)[O-]", "melting point": "211 to 214"}
{"smiles": "CC(C)(C)NC(=O)[C@@H]1CCCN1C(=O)[C@@H](O)[C@H](Cc1ccccc1)NC(=O)[C@H](CC(N)=O)NC(=O)COc1ccccc1N", "melting point": "107 to 114"}
{"smiles": "COc1ccc(C(=O)c2cccc(S(N)(=O)=O)c2)cc1", "melting point": "119 to 122"}
{"smiles": "CCCOc1ccc(S(N)(=O)=O)cc1C1=NC(=O)C2=NC=NC2=N1", "melting point": "276 to 278"}
{"smiles": "C#CCOCCn1c(N2CCN(C)CC2)nc2ccccc21", "melting point": "145 to 146"}
{"smiles": "O=C1c2ccccc2C(O)N1CCCSc1ccncc1", "note": "(centres undefined)", "melting point": "132 to 134"}
{"smiles": "COc1ccc(C(F)(F)F)cc1N1CCN(CCCNC(=O)c2cccc3c(=O)c(C)c(-c4ccccc4)oc23)CC1", "melting point": "173 to 176"}
{"smiles": "C#CCCc1c(C)c(OC)c(C)c(C)c1OC", "melting point": 54}
{"smiles": "COC(=O)CCN(C(=O)CC(O)C(=O)O)N1CCCCC1", "note": "(centres undefined)", "melting point": "54 to 57"}
{"smiles": "COC(=O)CCC(=O)c1ccc2oc3ccccc3c2c1", "melting point": "106 to 108"}
